Reference: patent EP0671173A1, “Use of a tricyclic derivative for producing a medicament for the treatment of cognitive and memory disorders” (ADIR ET COMPAGNIE, priority 1994, dated 1995)

Tests used:
[1] = system: souris mâles de la lignée BALB/c; experiment: T-maze: acquisition and retention of a simple spatial discrimination in the mouse; type: in vivo; conditions: 10 mg/kg i.p. 30 minutes before the test; for Acquisition de la discrimination : Nombre de réponses correctes sur les 20 premiers essais de l'épreuve: day 3, 12 BALB/c mice per group; for Acquisition de la discrimination : Nombre de réponses correctes sur les 20 premiers essais de l'épreuve / Rétention de la discrimination : Essais au critère: mean ± standard error; for Rétention de la discrimination : Essais au critère: day 4 (24 h after acquisition), criterion 5/5; for Rétention : Réponses correctes sur les cinq premiers essais: placebo 3,0 ± 0,21
Description: Comparaison des effets de la tianeptine et de l'isomère (+) de celle-ci sur l'alternance spontanée, l'acquisition et la rétention d'une discrimination spatiale simple (labyrinthe en T) chez la souris.
Le principe du test s'appuie sur la tendance innée qu'ont les mammifères confrontés à un choix entre deux directions à prendre, à aller explorer le lieu qui leur est le moins familier. Un animal placé plusieurs fois successivement à l'entrée d'un labyrinthe en T se dirigera de préférence vers le bras qu'il n'a pas visité précédemment. Pour que ce comportement apparaisse, il est évidemment nécessaire que l'animal se souvienne du dernier bras visité. Ce souvenir met en jeu la mémoire dite de travail. La souris est soumise à une phase d'apprentissage (acquisition) pendant laquelle elle doit choisir plusieurs fois, de suite entre les deux bras, jusq'uà ce qu'elle ait opté cinq fois de suite pour un bras déterminé par l'expérimentateur. Pour apprécier si l'animal a bien retenu ce qu'il a appris au cours de l'épreuve d'acquisition, il est replacé 24 heures plus tard dans la même situation. Le degré de rétention sera mesuré par le nombre d'épreuves subies avant la réussite de cinq essais consécutifs.
Animaux : 36 souris mâles de la lignée BALB/c, vierges de toute expérimentation et âgées de 14 à 16 semaines, sont utilisées. Elles sont placées, 15 jours avant le début des expériences, dans des cages individuelles (animalerie climatisée (22°C) et pourvue d'un cycle artificiel lumière-obscurité de 12 heures (7h ON)).
Appareil : C'est un labyrinthe en T construit en plexiglas de couleur grise. Le couloir central et les deux bras d'arrivée mesurent 35 cm de long, 10 cm de large et 20 cm de haut. Le compartiment de départ (10 x 12 cm) est séparé du couloir central par une porte à guillotine. L'entrée de chaque bras est également pourvue d'une porte. L'appareil utilisé est semi-automatique : l'alimentation des mangeoires, l'ouverture et la fermeture des portes sont commandées par un micro-ordinateur selon le protocole pré-établi.
Protocole : Toutes les épreuves se déroulent entre 9h et 16h et durant 4 jours (de J1 à J4) sans interruption. La ration alimentaire des animaux est réduite de façon à atteindre un poids corporel de 83-84 % du poids ad libitum pour les épreuves d'habituation (J1 et J2) et de 87-88 % lors des épreuves d'alternance et de discrimination spatiale (J3 et J4).
Habituation (J1-J2) : L'expérience proprement dite est précédée de deux séances d'habituation de 10 minutes (exploration libre, une séance par jour). L'animal est simplement placé dans l'appareil toutes portes ouvertes.
Alternances spontanées et acquisition de la discrimination (J3) : Ces deux épreuves ont lieu le lendemain sans interruption. Elles sont destinées à mesurer l'alternance (6 premiers essais) et la vitesse d'acquisition de la discrimination spatiale (essais suivants). Lors des 6 premiers essais, la nourriture est disposée à l'extrémité de chacun des deux bras. Lors de chaque essai, l'animal est placé dans le compartiment de départ pendant 30 secondes (intervalle entre essais). La porte donnant accès au couloir central est ouverte et la souris peut choisir entre les deux bras où elle reste enfermée pendant 30 secondes. On constate que l'animal normal alterne ses choix successifs (65 % d'alternance environ). Apartir du 6ème essai, la nourriture n'est plus disposée que dans un seul bras, toujours le même; le bras choisi est celui qui a été le moins visité au cours des 6 premiers essais. L'épreuve se poursuit alors jusqu'à ce que l'animal atteigne un critère de 5 bonnes réponses sur 5 essais consécutifs.
Rétention de la discrimination spatiale (J4) : Elle se déroule dans les mêmes conditions que l'acquisition (même bras renforcé) et se poursuit pendant un minimum de 10 essais ou, au-delà, jusqu'à l'atteinte du critère de 5/5. Le nombre d'essais est limité à 20. […]

[2] = system: souris mâles de la lignée BALB/c; conditions: 10 mg/kg, mouse; earlier results (Jaffard et coll., Behav. Pharmacol., 1991); cited from earlier work

CN1c2ccccc2C(NCCCCCCC(=O)O)c2ccc(Cl)cc2S1(=O)=O (racemic) [Tianeptine, tianeptine]
Acquisition de la discrimination : Nombre de réponses correctes sur les 20 premiers essais de l'épreuve [1]: 12,75 ± 0,77
Rétention de la discrimination : Essais au critère [1]: 8,58 ± 0,60 essais
Rétention : Réponses correctes sur les cinq premiers essais ([1]; day 4): n'a pas d'effet
alternance spontanée, acquisition et rétention d'une discrimination simple (labyrinthe en T) [2]: facilitait

CN1c2ccccc2C(NCCCCCCC(=O)O)c2ccc(Cl)cc2S1(=O)=O (single isomer, unassigned; (+)) [Isomère (+), (+)7-[(3-chloro-6-méthyl-5,5-dioxo-6,11-dihydrodibenzo[c,f]-[1,2]-thiazepin-11-yl)amino]heptanoatede sodium]
Acquisition de la discrimination : Nombre de réponses correctes sur les 20 premiers essais de l'épreuve [1]: 14,83 ± 0,75
Rétention de la discrimination : Essais au critère [1]: 7,83 ± 0,74 essais
Rétention : Réponses correctes sur les dix premiers essais ([1]; day 4): performances supérieures (p<0,02) à celles du groupe tianeptine
Rétention : Réponses correctes sur les cinq premiers essais ([1]; day 4): 3,92 ± 0,15
